The results in this text go back to patent US20230277553A1, “THERAPEUTIC COMPOSITION OF CURE-PRO COMPOUNDS FOR TARGETED DEGRADATION OF BET DOMAIN PROTEINS, AND METHODS OF MAKING AND USAGE” (CORNELL UNIVERSITY, priority 2020, published 2023).

“Also recorded” adds a separate entry of the source.

Assay [1] concerns the target T1, BRD4 (Homo sapiens, UniProt O60885). Kind of assay: CURE-PRO-mediated BRD4 degradation with VHL ligands, Western blot, MCF7 cells. The format is cell-based. Also on record: endogenous in cells. The following applies: MCF7, 24 h, 1:1 with 8305, 100 nM-10 μM. How it is done:
(§1) All cell lines were purchased from ATCC or DSMZ and grown at 37° C. with 5% CO2. Human HeLa cells were cultured in complete growth medium (Dulbecco's modified Eagle's medium (DMEM) supplemented with 10% FBS); MCF7 cells were cultured in complete growth medium (Dulbecco's modified Eagle's medium (DMEM) supplemented with 10% FBS and 0.01 mg/ml human recombinant insulin (Sigma Aldrich); Namalwa and MOLM-13 cells were cultured in complete growth medium (RPMI 1640 medium supplemented with 10% FBS); MV-4-11 were cultured in complete growth medium (Iscove's Modified Dulbecco's medium, supplemented with 10% FBS); HCT116 cells were cultured in complete growth medium (McCoy's 5a Medium supplemented with 10% FBS). For cellular degradation of BRD4 studies, cells were seeded in a 12-well plate at 70-80% confluency, allowed to attach overnight, and incubated with the indicated compounds for the indicated time. When indicated, a 15-minute pretreatment with 10 μM pomalidomide, 10 μM VHL298, 10 μM Nutlin3a, 1 μM MG-132 or 1 μM Carfilzomib was performed before the addition of CURE-PROs. For washout studies, after CURE-PRO treatment, media was aspirated and incubated with complete medium for the indicated time before lysis.
HeLa, MCF7, or HCT116 cells (2.5-3×10^6) were treated for 24 hours with the indicated compounds solubilized in DMSO. The cells were washed in ice-cold PBS and were then lysed in RIPA lysis buffer (150 mM NaCl, 5 mM EDTA, 1% NP-40, 0.5% sodium deoxycholate, 0.1% SDS, 50 mM Tris, pH 8.0.) with Roche protease inhibitor complete cocktail and phosphatase inhibitors (10 mM sodium fluoride, 10 mM sodium pyrophosphate, 1 mM sodium orthovanadate and 20 mM β-glycerophosphate). The total protein concentrations were determined by Bradford Protein Assay and 10-20 μg of protein was loaded onto 4-15% Tris-Glycine gradient gels (Biorad). After standard gel electrophoresis, the separated proteins were transferred to PVDF membrane by wet transfer. The immunoblots were then blocked for 1 hour in 5% skim milk in TBST or 5% BSA in TBST, according to manufacturer's instructions, before an overnight incubation at 4° C. with indicated antibodies and membranes. Membranes were then incubated with the appropriate horseradish peroxidase-conjugated secondary antibodies (1:5,000 dilution) for 1 h at room temperature and the bands were visualized using the Clarity Max Western ECL Substrate (Biorad) and the ChemiDoc Imaging System (Biorad). Signal was detected with ECL Western Blotting Substrate (Pierce) and X-ray film processed with a Konica SRX-101 X-ray film processor or captured by Bio-Rad's Chemidoc Imaging system.
MCF7 cells (3×10^6) were treated for 24 h with the compounds solubilized in DMSO. Compounds were added at 100 nM-10 μM. […]
(A western blot detects proteins with antibodies after separation by electrophoresis.)

Assay [2] has as its target T1, BRD4. Kind of assay: CURE-PRO-mediated BRD4 degradation with VHL ligands, WES (ProteinSimple), MCF7 cells. Also on record: endogenous in cells. The following applies: MCF7, 10 μM each. Format: cell-based. Here is the method:
as §1
WES Simple analysis was performed on WES system (ProteinSimple-Biotechne) according to the manufacturer's instructions. Total protein concentrations of cell lysates were determined by the Pierce BCA kit (Thermo Fisher). 3 μL of 0.3 μg/μL of the protein lysate was loaded onto a 12- to 230-kDa WES assay plate (ProteinSimple) where 300 nL sample was withdrawn through a capillary, subjected to electrophoretic separation of proteins by size, and followed by the simultaneous, HRP-based detection of proteins using the Anti-Rabbit Detection Module (Proteinsimple: #DM-001). The electropherograms were checked then the automatic peak detection was manually corrected if it was required.
MCF7 cells (3×10^6) were treated for 4-24 hours continually (FIG. 72), or treated for 4h, washed and incubated for a further 4-24 h with the compounds solubilized in DMSO. Compounds were added at 10 μM each. Cells were washed, lysed, and clarified by centrifugation. The total protein concentration was quantified by the BCA method (ThermoFisher Sciences). Standardized protein samples were electrophoresed and imaged as described in the WES Proteinsimple section above. FIG. 69 depicts the CURE-PRO-mediated BRD4 degradation for the BRD-E50 monomer, and VHL ligand, 8305.
MCF7 cells (3×10^6) were treated for 24 hours with the compounds solubilized in DMSO. CURE-PRO monomers were added at 10 μM each and the proteasomal inhibitors at 1 μM. Standardized protein samples were electrophoresed and imaged as described in the WES Proteinsimple section above. FIGS. 73 and 75 depicts the dependence of the proteasome for CURE-PRO-mediated BRD4 degradation.
MCF7 cells (3×10^6) were treated for 24 hours with the compounds solubilized in DMSO. CURE-PRO monomers were added at 10 μM. FIG. 74 depicts the CURE-PRO-mediated BRD4 degradation for the BRD-E50 monomer, and VHL ligand, 8305 combined in a 1:1 ratio after 24 h.

Regarding `CCNC(=O)C[C@@H]1N=C(c2ccc(Cl)cc2)c2cc(OCCCCC(=O)Nc3cccc(B(O)O)c3)ccc2-n2c(C)nnc21` [BRD-E20, (3-(5-(((4S)-6-(4-chlorophenyl)-4-(2-(ethylamino)-2-oxoethyl)-1-methyl-4H-benzo[f][1,2,4]triazolo[4,3-a][1,4]diazepin-8-yl)oxy)pentanamido)phenyl)boronic acid], the “BRD4 degradation, with VHL ligand 8305 (Western blot)” value at BRD4 [1] was “there is degradation of BRD4”. At BRD4 [2], the “BRD4 degradation, with VHL ligand 8304 (WES)” value was “failed to induce BRD4 degradation”. In addition, the “BRD4 degradation, with VHL ligand 8305 (WES)” value at BRD4 [2] (1:1 with 8305, 4-24 h, with washout where stated) is “caused BRD4 degradation; also recorded: marked BRD4 degradation”.
